Test results as given in ChEMBL document CHEMBL1201862, “PubChem BioAssay data set” (2004).
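Briefly, cells in 96-well plates were exposed to five compound concentrations for 48 h, and endpoints were estimated by linear interpolation. GI50 = concentration required for 50% inhibition of growth.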 Calls of active or inactive are those of the source. No stated cut-off is given here; in the data, active = GI50 up to about 1.1 µM and inactive = higher.

Columns and labels:
Assay in all cases: NCI-60 cell line screen, 48 h
UACC-62 = tested on: UACC-62
RXF 393 = tested on: RXF 393
SK-MEL-28 = tested on: SK-MEL-28
OVCAR-3 = tested on: OVCAR-3
HCT-116 = tested on: HCT-116
ACHN = tested on: ACHN
NCI-H226 = tested on: NCI-H226
MOLT-4 = tested on: MOLT-4
CCRF-CEM = tested on: CCRF-CEM
A498 = tested on: A498
SF-268 = tested on: SF-268
LXFL 529 = tested on: LXFL 529
OVCAR-8 = tested on: OVCAR-8
SN12C = tested on: SN12C
U-251 = tested on: U-251
HOP-62 = tested on: HOP-62
786-0 = tested on: 786-0
SF-295 = tested on: SF-295
HL-60 = tested on: HL-60
HCT-15 = tested on: HCT-15

SMILES | GI50 (UACC-62) | GI50 (RXF 393) | GI50 (SK-MEL-28) | GI50 (OVCAR-3) | GI50 (HCT-116) | GI50 (ACHN) | GI50 (NCI-H226) | GI50 (MOLT-4) | GI50 (CCRF-CEM) | GI50 (A498) | GI50 (SF-268) | GI50 (LXFL 529) | GI50 (OVCAR-8) | GI50 (SN12C) | GI50 (U-251) | GI50 (HOP-62) | GI50 (786-0) | GI50 (SF-295) | GI50 (HL-60) | GI50 (HCT-15) [µM]
COc1ccc2nc3ccccc3c(NCCCCCCN(C)CCCl)c2c1 | 0.307 µM (active) | 0.367 µM (active) | 0.986 µM (active) | 1.19 µM (inactive) | 0.0887 µM (active) | 0.239 µM (active) | 0.104 µM (active) | < 0.01 µM (active) | 0.0368 µM (active) | 1.16 µM (inactive) | 0.133 µM (active) | 0.262 µM (active) | 0.296 µM (active) | 0.0689 µM (active) | 0.286 µM (active) | 1.05 µM (active) | 0.177 µM (active) | 1 µM (active) | 0.0312 µM (active) | 0.221
CCOc1ccc(/C(C=O)=C(\Cl)c2ccc(OC)cc2)cc1 | > 51.9 µM (inactive) | > 100 µM (inactive) | > 100 µM (inactive) | > 100 µM (inactive) | > 83.8 µM (inactive) | > 100 µM (inactive) | > 100 µM (inactive) | 5.48 µM (inactive) | 5.24 µM (inactive) | > 100 µM (inactive) | > 100 µM (inactive) | > 100 µM (inactive) | > 100 µM (inactive) | > 100 µM (inactive) | > 57.7 µM (inactive) | 46.7 µM (inactive) | > 100 µM (inactive) | > 100 µM (inactive) | 14.6 µM (inactive) | 28.6
O=C(O)CCC(=O)Oc1ccc(O)c2c1CCCC2=O | 69.7 µM (inactive) | > 100 µM (inactive) | > 100 µM (inactive) | > 100 µM (inactive) | > 100 µM (inactive) | > 100 µM (inactive) | > 100 µM (inactive) | > 100 µM (inactive) | > 100 µM (inactive) | > 100 µM (inactive) | > 100 µM (inactive) | > 100 µM (inactive) | > 100 µM (inactive) | > 100 µM (inactive) | > 100 µM (inactive) | > 100 µM (inactive) | > 100 µM (inactive) | > 100 µM (inactive) | > 100 µM (inactive) | > 100
Cn1ccnc1CCc1ccc(Cl)cc1Cl | > 100 µM (inactive) | 35.4 µM (inactive) | > 100 µM (inactive) | > 100 µM (inactive) | > 100 µM (inactive) | > 100 µM (inactive) | > 100 µM (inactive) | > 100 µM (inactive) | > 100 µM (inactive) | > 100 µM (inactive) | > 100 µM (inactive) | > 100 µM (inactive) | > 100 µM (inactive) | > 100 µM (inactive) | > 100 µM (inactive) | > 100 µM (inactive) | > 100 µM (inactive) | 79.1 µM (inactive) | 68.1 µM (inactive) | > 100
CC(=O)O[C@H]1[C@@H]2[C@@H]3[C@@H](C[C@H]1C)[C@@H](C)CO[C@@]1(C)CC/C=C(/C)C[C@@H]2O[C@@H]31 | > 100 µM (inactive) | > 100 µM (inactive) | > 100 µM (inactive) | > 100 µM (inactive) | > 100 µM (inactive) | > 100 µM (inactive) | > 100 µM (inactive) | > 100 µM (inactive) | > 100 µM (inactive) | > 100 µM (inactive) | > 100 µM (inactive) | > 100 µM (inactive) | > 100 µM (inactive) | > 100 µM (inactive) | > 100 µM (inactive) | > 100 µM (inactive) | > 100 µM (inactive) | > 100 µM (inactive) | > 100 µM (inactive) | > 100
CCOC(=O)Nc1ccc2c(c1)N(C(=O)CCN(CC)CC)c1ccccc1S2 [ETHACIZINE] | 21.5 µM (inactive) | 21.6 µM (inactive) | 28.5 µM (inactive) | 30 µM (inactive) | 17.6 µM (inactive) | 29.8 µM (inactive) | 51.2 µM (inactive) | 22.9 µM (inactive) | 34.3 µM (inactive) | 23.4 µM (inactive) | 27.8 µM (inactive) | 19 µM (inactive) | 25 µM (inactive) | 28.6 µM (inactive) | 26.6 µM (inactive) | 33.9 µM (inactive) | 24.4 µM (inactive) | 22.1 µM (inactive) | 18.9 µM (inactive) | 30.4
